Values of other authors, collected in US10975131B2, “Factor H-Fc immunotheraphy” (priority 2015, dated 2021).
Read-outs that look alike come from different tables or passages of the source.

Tested on: N. gonorrhoeae strains

CO/N=C(\C(=O)N[C@@H]1C(=O)N2C(C(=O)O)=C(CSc3nc(=O)c(=O)[nH]n3C)CS[C@H]12)c1csc(N)n1 [Ceftriaxone, ceftriaxone]
Ceftriaxone MIC (strain CTXr (Spain), resistant): 2 (resistant) ug/ml
Ceftriaxone MIC (strain FA1090): 0.004 µg/mL
Ceftriaxone MIC (strain H041, resistant): 2-4 (resistant) ug/ml
Ceftriaxone MIC (strain MS11): 0.032 µg/mL
Ceftriaxone MIC (strain NJ-1, agar dilution): 0.023 µg/mL
Ceftriaxone MIC (strain NJ-11, agar dilution): 0.047 µg/mL
Ceftriaxone MIC (strain NJ-15, agar dilution): 0.047 µg/mL
Ceftriaxone MIC (strain NJ-19, agar dilution): 0.032 µg/mL
Ceftriaxone MIC (strain NJ-26, agar dilution): 0.032 µg/mL
Ceftriaxone MIC (strain NJ-27, agar dilution): 0.064 µg/mL
Ceftriaxone MIC (strain NJ-36, agar dilution): 0.032 µg/mL
Ceftriaxone MIC (strain NJ-44, agar dilution, elevated MIC to CRO): 0.125 (elevated ug/ml
Ceftriaxone MIC (strain NJ-48, agar dilution, elevated MIC to CRO): 0.125 (elevated ug/ml
Ceftriaxone MIC (strain NJ-60, agar dilution, resistant): 0.380 (resistant) ug/ml
